# Experimental data from paper PMC5951806, “Rapid labelling and covalent inhibition of intracellular native proteins using ligand-directed N-acyl-N-alkyl sulfonamide” (Nature Communications, 2018).
# Assays:
# Experiment in all cases: TMT LC-MSMS of 11-labelled proteins
# Assay type in all cases: cell-based
# [1] = target: Fatty acid synthase (FASN) (Homo sapiens, UniProt P49327)
# Description: (§1) The labelled proteins were enriched by immunoprecipitation with an anti-fluorescein antibody and tryptically digested in gel. Digested peptides were modified with Light- (L-), Medium- (M-), or Heavy- (H-) TMT reagent for samples treated with 11, 11 with PU-H71 (as competitive condition), or DMSO (vehicle), respectively, and mixed in a 1:1:1 ratio for LC-MSMS analysis. We performed three experimental replicates, in which proteins detected and quantified at least twice were selected as identified proteins. According to the related approach of Cravatt et al[44], the proteins having L/H (11/DMSO) ratios >5 were defined as 11-labelled proteins. […] On the basis of these criteria, we identified 6 proteins that react with 11, including three ligand-specific targets (Hsp90α (HSP90AA1), Hsp90β (HSP90AB1), and Grp94 (HSP90B1)) and three off-targets (Trifunctional enzyme subunit α (HADHA), Tubulin-α (TUBA1B), and ADP/ATP translocase 3 (SLC25A6)) (Fig. 5d, e and Supplementary Data 1). […] Grp94, a HSP90 isomer, was previously reported to be a PU-H71 specific target. TRAP-1, another Hsp90 isomer that can bind PU-H71, on the other hand, was not identified as 11-target by our criteria.
# (§2) SKBR3 human breast cancer cells (2.0 × 10^6 cells) were seeded on a 10 cm dish and cultured for 3 days in McCoy’s 5A in a 5% CO2 humidified chamber at 37 °C. […] As competitive experiments, the labelling was conducted in the presence of PU-H71 (10 µM). After labelling, the cells were washed twice with PBS, and lysed with RIPA buffer. […] The supernatant was mixed with chilled acetone and incubated overnight at −80 °C. The protein precipitates were solubilized by sonication in 1 mL of RIPA buffer containing 1% SDS, and then 10-fold diluted with RIPA buffer to reduce SDS concentration to c.a. 0.1%. The protein solution (containing 1 mg of protein) was mixed with Protein G Sepharose 4 Fast Flow (GE Healthcare) and rotated at 4 °C for 1 h. After removal of the beads, the remaining supernatant was mixed with anti-fluorescein antibody (Abcam, ab19491, 7:10000) and rotated at 4 °C for 1 h, followed by addition of fresh Protein G Sepharose 4 Fast Flow and further incubation at 4 °C for 4 h. The beads were washed five times with RIPA buffer and once with PBS. Proteins were eluted from the beads by addition of 2 × sample buffer containing 100 mM DTT and boiling at 95 °C for 5 min. The samples were subjected to a 7.5% SDS–PAGE gel (Mini-PROTEAN TGX Gels, BioRad), and electrophoresed as the migration distance of dye front is about 10 mm. Each lane was excised (height, 10 mm), and treated with a 47.5% methanol / 47.5% pure water / 5% acetic acid for 20 min, a 50% methanol / 50% pure water for 10 min, and in pure water for 10 min. The gel pieces were dehydrated with 100% acetonitrile, and then swelled with 200 μL of 100 mM TEAB (triethylamine bicarbonate) buffer containing 10 mM DTT and heated at 56 °C for 30 min. The solutions were replaced with 200 µL of 100 mM TEAB buffer containing 55 mM iodoacetamide and incubated for 45 min in the dark. The gel pieces were washed with 100 mM TEAB buffer and dehydrated in acetonitrile. This step was repeated once. The gels were reswelled in 100 mM TEAB buffer containing 10 ng/μL Sequencing Grade Trypsin (Promega) and incubated overnight at 37 °C. To the gels, 50 μL of an extraction solution (50% acetonitrile, 0.1% TFA) was added. After 10 min incubation, the supernatants were collected to new tubes, and this process was repeated twice. Extracted peptides were dried in vacuo and reconstituted with 25 μL of 100 mM TEAB buffer.
# [2] = target: T1, Isoform 3 of Very long-chain specific acyl-CoA dehydrogenase, mitochondrial (ACADVL) (Homo sapiens, UniProt P49748)
# T1 sequence (P49748 64-678 isoform P49748-3): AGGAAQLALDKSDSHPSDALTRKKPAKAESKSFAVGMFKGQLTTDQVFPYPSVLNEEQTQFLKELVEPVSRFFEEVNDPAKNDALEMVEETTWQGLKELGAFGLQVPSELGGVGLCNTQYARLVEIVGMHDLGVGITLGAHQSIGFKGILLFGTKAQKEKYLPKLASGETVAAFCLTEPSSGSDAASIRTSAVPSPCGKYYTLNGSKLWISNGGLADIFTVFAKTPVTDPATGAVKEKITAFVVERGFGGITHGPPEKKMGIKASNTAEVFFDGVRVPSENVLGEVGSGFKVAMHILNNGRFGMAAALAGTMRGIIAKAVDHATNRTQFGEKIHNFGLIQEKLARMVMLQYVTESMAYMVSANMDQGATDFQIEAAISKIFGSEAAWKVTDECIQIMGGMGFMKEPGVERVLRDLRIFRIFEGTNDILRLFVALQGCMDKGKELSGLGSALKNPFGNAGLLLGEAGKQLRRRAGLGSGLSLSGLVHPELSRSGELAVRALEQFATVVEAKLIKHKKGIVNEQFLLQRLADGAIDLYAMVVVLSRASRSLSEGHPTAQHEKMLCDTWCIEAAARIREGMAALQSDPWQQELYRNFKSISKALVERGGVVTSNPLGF
# Description: as §1, §2
# [3] = target: L-lactate dehydrogenase B chain (LDHB) (Homo sapiens, UniProt P07195)
# Sequence of L-lactate dehydrogenase B chain (LDHB) (P07195 whole entry): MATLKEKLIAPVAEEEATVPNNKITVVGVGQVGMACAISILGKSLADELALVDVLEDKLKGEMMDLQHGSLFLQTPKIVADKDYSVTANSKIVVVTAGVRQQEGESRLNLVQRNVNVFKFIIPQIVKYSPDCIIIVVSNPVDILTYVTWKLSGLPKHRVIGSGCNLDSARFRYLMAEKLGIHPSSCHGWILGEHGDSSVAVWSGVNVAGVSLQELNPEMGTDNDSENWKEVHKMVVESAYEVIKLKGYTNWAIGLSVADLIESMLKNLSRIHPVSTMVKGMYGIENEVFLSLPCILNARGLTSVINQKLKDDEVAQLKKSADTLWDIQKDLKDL
# Description: as §1, §2
# [4] = sheet Exp1, SKBR3 cells, 11 0.5 µM 3 h vs DMSO
# [5] = sheet Exp1, SKBR3 cells, 11 0.5 µM 3 h vs with PU-H71 10 µM
# [6] = sheet Merged, SKBR3 cells, 11 0.5 µM 3 h vs DMSO
# [7] = sheet Merged, SKBR3 cells, 11 0.5 µM 3 h vs with PU-H71 10 µM
# Sequence of Fatty acid synthase (FASN) (P49327 whole entry): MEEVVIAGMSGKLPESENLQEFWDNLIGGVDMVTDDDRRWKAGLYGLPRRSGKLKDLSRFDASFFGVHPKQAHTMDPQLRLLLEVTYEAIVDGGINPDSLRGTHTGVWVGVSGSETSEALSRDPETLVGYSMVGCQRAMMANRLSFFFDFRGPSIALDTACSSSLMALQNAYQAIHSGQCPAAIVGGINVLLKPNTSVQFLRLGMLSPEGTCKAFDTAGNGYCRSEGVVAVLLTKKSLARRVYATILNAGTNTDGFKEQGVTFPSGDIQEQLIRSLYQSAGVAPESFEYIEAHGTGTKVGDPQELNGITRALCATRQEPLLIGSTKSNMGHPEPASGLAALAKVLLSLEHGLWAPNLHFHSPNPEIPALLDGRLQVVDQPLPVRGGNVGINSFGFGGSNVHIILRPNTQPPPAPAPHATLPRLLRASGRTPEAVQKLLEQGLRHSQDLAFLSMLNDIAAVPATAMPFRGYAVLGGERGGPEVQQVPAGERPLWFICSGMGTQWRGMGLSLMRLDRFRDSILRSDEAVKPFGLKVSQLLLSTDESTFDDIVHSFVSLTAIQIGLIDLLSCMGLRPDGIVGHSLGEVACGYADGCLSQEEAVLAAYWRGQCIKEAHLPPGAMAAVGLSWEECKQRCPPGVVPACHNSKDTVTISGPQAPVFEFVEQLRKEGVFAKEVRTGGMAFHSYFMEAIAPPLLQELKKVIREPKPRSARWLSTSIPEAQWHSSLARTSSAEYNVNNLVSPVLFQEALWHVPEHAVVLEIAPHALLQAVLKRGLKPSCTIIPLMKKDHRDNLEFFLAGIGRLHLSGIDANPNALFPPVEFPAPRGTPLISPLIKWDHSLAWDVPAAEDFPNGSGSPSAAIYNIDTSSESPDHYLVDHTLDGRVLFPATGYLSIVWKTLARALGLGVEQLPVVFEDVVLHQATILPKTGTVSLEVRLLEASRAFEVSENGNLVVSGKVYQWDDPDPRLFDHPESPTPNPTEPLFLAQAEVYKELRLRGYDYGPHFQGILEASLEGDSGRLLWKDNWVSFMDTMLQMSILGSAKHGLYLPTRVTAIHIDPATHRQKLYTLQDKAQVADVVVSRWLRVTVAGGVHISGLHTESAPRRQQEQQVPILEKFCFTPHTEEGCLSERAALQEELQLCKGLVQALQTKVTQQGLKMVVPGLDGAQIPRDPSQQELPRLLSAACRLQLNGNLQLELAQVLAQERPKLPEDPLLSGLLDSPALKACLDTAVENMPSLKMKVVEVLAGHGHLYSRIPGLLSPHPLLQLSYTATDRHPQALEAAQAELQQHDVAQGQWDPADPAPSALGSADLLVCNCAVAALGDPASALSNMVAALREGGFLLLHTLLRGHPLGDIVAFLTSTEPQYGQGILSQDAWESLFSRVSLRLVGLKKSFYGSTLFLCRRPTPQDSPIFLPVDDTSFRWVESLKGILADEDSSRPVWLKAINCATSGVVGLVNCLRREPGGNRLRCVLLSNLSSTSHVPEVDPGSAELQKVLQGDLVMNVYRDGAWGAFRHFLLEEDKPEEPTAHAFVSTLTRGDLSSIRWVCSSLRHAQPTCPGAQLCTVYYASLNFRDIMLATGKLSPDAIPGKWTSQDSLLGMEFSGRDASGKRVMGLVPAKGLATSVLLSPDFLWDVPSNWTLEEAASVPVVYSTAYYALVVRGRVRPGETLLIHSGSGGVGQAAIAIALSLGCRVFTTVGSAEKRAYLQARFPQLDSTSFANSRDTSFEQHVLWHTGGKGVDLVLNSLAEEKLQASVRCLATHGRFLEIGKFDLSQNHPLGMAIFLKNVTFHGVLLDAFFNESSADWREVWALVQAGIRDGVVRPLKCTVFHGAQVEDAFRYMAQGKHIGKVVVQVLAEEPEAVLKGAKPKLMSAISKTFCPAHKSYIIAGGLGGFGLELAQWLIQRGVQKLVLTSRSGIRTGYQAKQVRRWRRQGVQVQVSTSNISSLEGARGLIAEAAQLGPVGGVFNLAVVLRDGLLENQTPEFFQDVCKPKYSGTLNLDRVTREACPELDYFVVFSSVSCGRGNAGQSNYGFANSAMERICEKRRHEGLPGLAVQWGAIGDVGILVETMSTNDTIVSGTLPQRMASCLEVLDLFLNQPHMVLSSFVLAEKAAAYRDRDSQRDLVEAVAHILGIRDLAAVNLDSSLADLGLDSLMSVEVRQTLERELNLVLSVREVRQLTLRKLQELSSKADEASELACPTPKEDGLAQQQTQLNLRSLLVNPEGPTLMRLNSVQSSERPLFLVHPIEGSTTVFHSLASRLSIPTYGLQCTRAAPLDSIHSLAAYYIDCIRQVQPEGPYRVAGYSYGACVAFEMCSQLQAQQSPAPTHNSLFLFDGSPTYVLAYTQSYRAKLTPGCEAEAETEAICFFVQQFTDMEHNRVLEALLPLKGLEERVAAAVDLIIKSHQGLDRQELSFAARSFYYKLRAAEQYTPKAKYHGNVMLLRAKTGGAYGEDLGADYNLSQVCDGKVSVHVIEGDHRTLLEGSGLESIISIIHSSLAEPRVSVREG
structure (smiles),measurement,setting,value
CC(=O)Oc1ccc2c(c1)Oc1cc(OC(C)=O)ccc1C21OC(=O)c2cc(C(=O)NCCOCCOCCNC(=O)CCCC(=O)N(CC#N)S(=O)(=O)c3ccc(C(=O)NCCCn4c(Sc5cc6c(cc5I)OCO6)nc5c(N)ncnc54)cc3)ccc21 [compound 11],Abundance Ratio: (11) / (11 with PU-H71),"[1]; Exp3, FASN",0.917
same,Abundance Ratio: (11) / (DMSO),"[1]; Exp3, FASN",4.35
same,Abundances (Grouped): 11,"[1]; Exp3, FASN",3505
same,Abundances (Grouped): 11 with PU-H71,"[1]; Exp3, FASN",3823.4
same,Abundance Ratio: (11) / (DMSO),[1]; [4],4.652
same,Abundance Ratio: (11) / (11 with PU-H71),[1]; [5],0.931
same,Abundance Ratio: (11) / (11 with PU-H71),"[1]; sheet Exp2, FASN",0.929
same,Abundance Ratio: (11) / (DMSO),"[1]; sheet Exp2, FASN",4.46
same,Abundances (Grouped): 11,"[1]; sheet Exp2, FASN",3656.7
same,Abundances (Grouped): 11 with PU-H71,"[1]; sheet Exp2, FASN",3935.1
same,Abundance Ratio: (11) / (DMSO),[1]; [6],4.491
same,Abundance Ratio: (11) / (11 with PU-H71),[1]; [7],0.931
same,Abundance Ratio: (11) / (11 with PU-H71),"[2]; Exp3, ACADVL",0.845
same,Abundance Ratio: (11) / (DMSO),"[2]; Exp3, ACADVL",5.056
same,Abundances (Grouped): 11,"[2]; Exp3, ACADVL",1747
same,Abundances (Grouped): 11 with PU-H71,"[2]; Exp3, ACADVL",2067.1
same,Abundance Ratio: (11) / (DMSO),[2]; [4],5.466
same,Abundance Ratio: (11) / (11 with PU-H71),[2]; [5],0.816
same,Abundance Ratio: (11) / (11 with PU-H71),"[2]; sheet Exp2, ACADVL",0.826
same,Abundance Ratio: (11) / (DMSO),"[2]; sheet Exp2, ACADVL",4.735
same,Abundances (Grouped): 11,"[2]; sheet Exp2, ACADVL",1334.4
same,Abundances (Grouped): 11 with PU-H71,"[2]; sheet Exp2, ACADVL",1615.2
same,Abundance Ratio: (11) / (DMSO),[2]; [6],4.735
same,Abundance Ratio: (11) / (11 with PU-H71),[2]; [7],0.826
same,Abundance Ratio: (11) / (DMSO),[3]; [4],3.283
same,Abundance Ratio: (11) / (11 with PU-H71),[3]; [5],0.769
same,Abundance Ratio: (11) / (11 with PU-H71),"[3]; sheet Exp2, LDHB",0.731
same,Abundance Ratio: (11) / (DMSO),"[3]; sheet Exp2, LDHB",3.172
same,Abundances (Grouped): 11,"[3]; sheet Exp2, LDHB",66.3
same,Abundances (Grouped): 11 with PU-H71,"[3]; sheet Exp2, LDHB, with PU-H71",90.7
same,Abundance Ratio: (11) / (DMSO),[3]; [6],3.227
same,Abundance Ratio: (11) / (11 with PU-H71),[3]; [7],0.75
